Laboratory results reported in patent publication US7601724B2, “Substituted pyrazolo[1,5-a]pyrimidines as protein kinase inhibitors” (Schering Corporation, priority 2002, dated 2009).

Biological target: T1, Cyclin E/CDK2 (Homo sapiens, UniProt P24941)
T1 construct: made in house; host or cells: SF9 insect cells, baculovirus co-infection
Assay: In vitro cyclin E/CDK2 kinase assay (33P-ATP, SPA beads), IC50 determination
Assay type: biochemical

Cn1cc(-c2cnn3c(Nc4ccc(-n5ccnc5)cc4)cc(C4CCCNC4)nc23)cn1 (stereo not shown) [Example 90-C]
IC50: 200 nM
